# Source: patent US20230002372A1, “AZAINDOLE CARBOXAMIDE COMPOUNDS FOR THE TREATMENT OF MYCOBACTERIAL INFECTIONS” (THE GLOBAL ALLIANCE FOR TB DRUG DEVELOPMENT, INC., priority 2019, published 2023)
# Test system: M tb H37Rv
# Experiment: MIC determination against M tb H37Rv (green fluorescent protein reporter assay; MIC-MABA)
# Format: cell-based, Mycobacterium tuberculosis
# Settings: Mycobacterium tuberculosis, H37RV, 240 h, read-out: M. TB H37Rv: MIC-MABA: MIC, M. tb H37Rv; 7H9 broth; 10 days exposure; MIC = lowest concentration inhibiting fluorescence by 90%
row,Compound,MIC
1,"Cc1c(C(=O)NC2CC[Si](C)(C)CC2)[nH]c2nccc(F)c12 [MPL-210, N-(1,1-dimethylsilinan-4-yl)-4-fluoro-3-methyl-1H-pyrrolo[2,3-b]pyridine-2-carboxamide]",0.058 µg/mL
2,"CC1(C)[C@H]2C[C@H](NC(=O)c3cc4c(F)ccnc4[nH]3)[C@](C)(O)[C@@H]1C2 [MPL-213, 4-fluoro-N-[(1R,2R,3S,5R)-2-hydroxy-2,6,6-trimethyl-norpinan-3-yl]-1H-pyrrolo[2,3-b]pyridine-2-carboxamide]",0.046 µg/mL
3,"CC1(C)[C@H]2C[C@H](NC(=O)c3cc4c(C#N)ccnc4[nH]3)[C@](C)(O)[C@@H]1C2 [MPL-215, 4-cyano-N-[(1R,2R,3S,5R)-2-hydroxy-2,6,6-trimethyl-norpinan-3-yl]-1H-pyrrolo[2,3-b]pyridine-2-carboxamide]",1.4 µg/mL
4,"CC1(C)[C@H]2C[C@H](NC(=O)c3cc4c(C(F)(F)F)ccnc4[nH]3)[C@](C)(O)[C@@H]1C2 [MPL-216, N-[(1R,2R,3S,5R)-2-hydroxy-2,6,6-trimethyl-norpinan-3-yl]-4-(trifluoromethyl)-1H-pyrrolo[2,3-b]pyridine-2-carboxamide]",0.041 µg/mL
5,"Cc1cc(Cl)c2cc(C(=O)N[C@H]3C[C@H]4C[C@H](C4(C)C)[C@@]3(C)O)[nH]c2n1 [MPL-218, 4-chloro-N-[(1R,2R,3S,5R)-2-hydroxy-2,6,6-trimethyl-norpinan-3-yl]-6-methyl-1H-pyrrolo[2,3-b]pyridine-2-carboxamide]",0.037 µg/mL
6,"CC1(C)[C@H]2C[C@H](NC(=O)c3cc4c(F)c(F)cnc4[nH]3)[C@](C)(O)[C@@H]1C2 [MPL-219, 4,5-difluoro-N-[(1R,2R,3S,5R)-2-hydroxy-2,6,6-trimethyl-norpinan-3-yl]-1H-pyrrolo[2,3-b]pyridine-2-carboxamide]",0.9 µg/mL
7,"CC1(C)[C@H]2C[C@H](NC(=O)c3cc4c(F)cncc4[nH]3)[C@](C)(O)[C@@H]1C2 [MPL-221, 4-fluoro-N-[(1R,2R,3S,5R)-2-hydroxy-2,6,6-trimethyl-norpinan-3-yl]-1H-pyrrolo[2,3-c]pyridine-2-carboxamide]",0.2 µg/mL
8,"CC1(C)[C@H]2C[C@H](NC(=O)c3cc4c(Cl)cncc4[nH]3)[C@](C)(O)[C@@H]1C2 [MPL-222, 4-chloro-N-[(1R,2R, 3S, 5R)-2-hydroxy-2,6,6-trimethyl-norpinan-3-yl]-1H-Pyrrolo[2,3-c]pyridine-2-carboxamide]",0.19 µg/mL
9,"Cc1c(C(=O)NC2CC[Si](C)(C)CC2)[nH]c2cncc(F)c12 [MPL-226, N-(1,1-dimethylsilinan-4-yl)-4-fluoro-3-methyl-1H-pyrrolo[2,3-c]pyridine-2-carboxamide]",0.75 µg/mL
10,"Cc1nc(Cl)c(F)c2cc(C(=O)NC3CC[Si](C)(C)CC3)[nH]c12 [MPL-236, 5-chloro-N-(1,1-dimethylsilinan-4-yl)-4-fluoro-7-methyl-1H-pyrrolo[2,3-c]pyridine-2-carboxamide]",0.18 µg/mL
11,"Cc1nc2[nH]c(C(=O)NC3CC[Si](C)(C)CC3)cc2c(C)c1F [MPL-237, N-(1,1-dimethylsilinan-4-yl)-5-fluoro-4,6-dimethyl-1H-pyrrolo[2,3-b]pyridine-2-carboxamide]",0.047 µg/mL
12,"Cc1cc(F)c2cc(C(=O)NC3CC[Si]4(CCCC4)CC3)[nH]c2n1 [MPL-253, 4-fluoro-6-methyl-N-(5-silaspiro[4.5]decan-8-yl)-1H-pyrrolo[2,3-b]pyridine-2-carboxamide]",0.056 µg/mL
13,"O=C(NC1CC[Si]2(CCCC2)CC1)c1cc2c(F)cncc2[nH]1 [MPL-254, 4-fluoro-N-(5-silaspiro[4.5]decan-8-yl)-1H-pyrrolo[2,3-c]pyridine-2-carboxamide]",0.2 µg/mL
14,"O=C(NC1CC[Si]2(CCCCC2)CC1)c1cc2c(F)cncc2[nH]1 [MPL-259, 4-fluoro-N-(6-silaspiro[5.5]undecan-3-yl)-1H-pyrrolo[2,3-c]pyridine-2-carboxamide]",0.054 µg/mL
15,"O=C(NC1CC[Si]2(CCCCC2)CC1)c1cc2c(Cl)cncc2[nH]1 [MPL-260, 4-chloro-N-(6-silaspiro[5.5]undecan-3-yl)-1H-pyrrolo[2,3-c]pyridine-2-carboxamide]",0.0075 µg/mL
16,"Cc1cc(Cl)c2cc(C(=O)NC3CCCC[Si](C)(C)CC3)[nH]c2n1 (stereo not drawn) [MPL-275, 4-chloro-N-(1,1-dimethylsilocan-4-yl)-6-methyl-1H-pyrrolo[2,3-b]pyridine-2-carboxamide]",0.031 µg/mL
17,"Cc1cc(Cl)c2cc(C(=O)NC3CC[Si]4(CCCC4)CC3)[nH]c2n1 [MPL-276, 4-chloro-6-methyl-N-(5-silaspiro[4.5]decan-8-yl)-1H-pyrrolo[2,3-b]pyridine-2-carboxamide]",0.015 µg/mL
18,"Cc1cc(Cl)c2cc(C(=O)NC3CC[Si]4(CCCCC4)CC3)[nH]c2n1 [MPL-277, 4-chloro-6-methyl-N-(6-silaspiro[5.5]undecan-3-yl)-1H-pyrrolo[2,3-b]pyridine-2-carboxamide]",0.045 µg/mL
19,"Cc1cc(F)c2c(C)c(C(=O)NC3CC[Si]4(CCCC4)CC3)[nH]c2n1 [MPL-280, 4-fluoro-3,6-dimethyl-N-(5-silaspiro[4.5]decan-8-yl)-1H-pyrrolo[2,3-b]pyridine-2-carboxamide]",0.043 µg/mL
20,"Cc1cc(F)c2c(C)c(C(=O)NC3CC[Si]4(CCCCC4)CC3)[nH]c2n1 [MPL-281, 4-fluoro-3,6-dimethyl-N-(6-silaspiro[5.5]undecan-3-yl)-1H-pyrrolo[2,3-b]pyridine-2-carboxamide]",0.0151 µg/mL

row,Compound,MIC
1,"Cc1nc2[nH]c(C(=O)NC3CCC[Si](C)(C)CC3)cc2c(F)c1F (stereo not drawn) [MPL-282, N-(1,1-dimethylsilepan-4-yl)-4,5-difluoro-6-methyl-1H-pyrrolo[2,3-b]pyridine-2-carboxamide]",< 0.004 µg/mL
2,"Cc1nc2[nH]c(C(=O)NC3CC[Si]4(CCCC4)CC3)cc2c(F)c1F [MPL-284, 4,5-difluoro-6-methyl-N-(5-silaspiro[4.5]decan-8-yl)-1H-pyrrolo[2,3-b]pyridine-2-carboxamide]",0.026 µg/mL
3,"Cc1nc2[nH]c(C(=O)NC3CC[Si]4(CCCCC4)CC3)cc2c(F)c1F [MPL-285, 4,5-difluoro-6-methyl-N-(6-silaspiro[5.5]undecan-3-yl)-1H-pyrrolo[2,3-b]pyridine-2-carboxamide]",0.016 µg/mL
4,"Cc1nc2[nH]c(C(=O)NC3CCCCCCC3)cc2c(F)c1F [MPL-290, N-cyclooctyl-4,5-difluoro-6-methyl-1H-pyrrolo[2,3-b]pyridine-2-carboxamide]",0.005 µg/mL
5,"Cc1nc2[nH]c(C(=O)NC3CCCC[Si](C)(C)CC3)cc2c(F)c1Cl (stereo not drawn) [MPL-292, 5-chloro-N-(1,1-dimethylsilocan-4-yl)-4-fluoro-6-methyl-1H-pyrrolo[2,3-b]pyridine-2-carboxamide]",0.0271 µg/mL
6,"Cc1nc2[nH]c(C(=O)N[C@H]3C[C@H]4C[C@H](C4(C)C)[C@@]3(C)O)cc2c(F)c1F [MPL-294, 4,5-difluoro-N-[(1R,2R,3S,5R)-2-hydroxy-2,6,6-trimethyl-norpinan-3-yl]-6-methyl-1H-pyrrolo[2,3-b]pyridine-2-carboxamide]",> 1 µg/mL
7,"Cc1nc2[nH]c(C(=O)NC3CCC[Si](C)(C)CCC3)cc2c(F)c1F [MPL-301, N-(1,1-dimethylsilocan-5-yl)-4,5-difluoro-6-methyl-1H-pyrrolo[2,3-b]pyridine-2-carboxamide]",0.015 µg/mL
8,Cc1cc(Cl)c2cc(C(=O)NC3CCC[Si](C)(C)CCC3)[nH]c2n1 [MPL-305],0.015 µg/mL
9,"Cc1ncc2[nH]c(C(=O)NC3CC[Si](C)(C)CC3)cc2c1F [MPL-318, N-(1,1-dimethylsilinan-4-yl)-4-fluoro-5-methyl-1H-pyrrolo[2,3-c]pyridine-2-carboxamide]",0.134 µg/mL
10,"Cc1ncc2[nH]c(C(=O)NC3CC[Si]4(CCCC4)CC3)cc2c1F [MPL-319, 4-fluoro-5-methyl-N-(5-silaspiro[4.5]decan-8-yl)-1H-pyrrolo[2,3-c]pyridine-2-carboxamide]",0.499 µg/mL
11,"Cc1ncc2[nH]c(C(=O)NC3CC[Si]4(CCCCC4)CC3)cc2c1F [MPL-320, 4-fluoro-5-methyl-N-(6-silaspiro[5.5]undecan-3-yl)-1H-pyrrolo[2,3-c]pyridine-2-carboxamide]",0.25 µg/mL
12,"C[Si]1(C)CCC(NC(=O)c2cc3cc(C(F)(F)F)ncc3[nH]2)CC1 [MPL-321, N-(1,1-dimethylsilinan-4-yl)-5-(trifluoromethyl)-1H-pyrrolo[2,3-c]pyridine-2-carboxamide]",0.519 µg/mL
13,"C[Si]1(C)CCC(NC(=O)c2cc3c(F)c(C(F)(F)F)ncc3[nH]2)CC1 [MPL-322, N-(1,1-dimethylsilinan-4-yl)-4-fluoro-5-(trifluoromethyl)-1H-pyrrolo[2,3-c]pyridine-2-carboxamide]",0.484 µg/mL
14,"Cc1ncc2[nH]c(C(=O)NC3CC[Si](C)(C)CC3)cc2c1Cl [MPL-328, 4-chloro-N-(1,1-dimethylsilinan-4-yl)-5-methyl-1H-pyrrolo[2,3-c]pyridine-2-carboxamide]",0.061 µg/mL
15,"C[Si]1(C)CCC(NC(=O)c2cc3c(Cl)c(C(F)(F)F)ncc3[nH]2)CC1 [MPL-329, 4-chloro-N-(1,1-dimethylsilinan-4-yl)-5-(trifluoromethyl)-1H-pyrrolo[2,3-c]pyridine-2-carboxamide]",0.491 µg/mL
16,"C[Si]1(C)CCC(NC(=O)c2cc3c(F)c(Cl)ncc3[nH]2)CC1 [MPL-345, 5-chloro-N-(1,1-dimethylsilinan-4-yl)-4-fluoro-1H-pyrrolo[2,3-c]pyridine-2-carboxamide]",0.498 µg/mL
17,"C[Si]1(C)CCCC(NC(=O)c2cc3c(F)c(Cl)ncc3[nH]2)CC1 (stereo not drawn) [MPL-346, 5-chloro-N-(1,1-dimethylsilepan-4-yl)-4-fluoro-1H-pyrrolo[2,3-c]pyridine-2-carboxamide]",0.464 µg/mL
18,"O=C(NC1CC[Si]2(CCCCC2)CC1)c1cc2c(F)c(Cl)ncc2[nH]1 [MPL-348, 5-chloro-4-fluoro-N-(6-silaspiro[5.5]undecan-3-yl)-1H-pyrrolo[2,3-c]pyridine-2-carboxamide]",0.435 µg/mL
19,"C[Si]1(C)CCC(NC(=O)c2cc3c(Cl)c(Cl)ncc3[nH]2)CC1 [MPL-349, 4,5-dichloro-N-(1,1-dimethylsilinan-4-yl)-1H-pyrrolo[2,3-c]pyridine-2-carboxamide]",0.068 µg/mL
